Results taken from patent publication EP0840727B1, “3-HYDROXY-2(1H)-[…] AGENTS” (priority 1995, dated 1997).
Marks after values point to notes of the source that are not given here.

Columns and labels:
Format in all cases: in vivo
[1] = Promoting excretion of 237Np(V) in mice by injected ligand
Text: (§1) Animal studies were completed using methods detailed in Radiation Protection Dosimetry, in press, P. W. Durbin et al., "In Vivo Chelation of Am(III), Pu(IV), Np(V) and U(VI) in Mice by TREN-(Me-3,2-HOPO)"; Radiation Protection Dosimetry, 17, No. 1, 1989, p. 351, P. W. Durbin et al., "Removal of ^238Pu(IV) from Mice by Polycatechoylate, -Hydroxamate or -Hydroxypyridinonate Ligands"; Radiation Research, 99, 1984, p. 85, P. W. Durbin et al., "Specific Sequestering Agents for the Actinides ..."; Radiation Research, 99, 1984, p. 106, P. W. Durbin et al., "Removal of Pu and Am from Beagles and Mice ..."; Radiation Research, 81, 1980, p. 170, R. D. Lloyd et al., and P. W. Durbin et al., "Specific Sequestering Agents for the Actinides ...". The foregoing articles are hereby incorporated by reference.
The ^237Np(V) was obtained from J. Bucher of the LBL Actinide Chemistry group as NpO2Cl in 0.1 M HCl. It was diluted to the desired radioactivity concentration in 0.14M NaCl and the pH was adjusted to about 4.5 with NaOH just before use.
(§2) One of the comparative chelating agents TREN-Me-3,2-HOPO, was also tested for effectiveness in promoting excretion of ^241Am(III), ^237Np(V), and ^232U(VI) by injection into mice, as follows: Mice, in groups of five, each received an intravenous injection of (a) 1100 Bq of ^241AM(III) in 0.2 mL of citrate buffer, (b) 150 Bq of ^232UO2Cl2 plus 3.6 mg of ^235UO2Cl2 in 0.2 mL of saline, or (c) 200 Bq of ^237NpO2Cl (7.5 mg of ^237NpO2Cl) in 0.2 mL of saline. Three to five minutes later, […] of TREN-Me-3,2-HOPO was injected intraperitoneally in 0.5 mL of saline. The mice were killed 24 hours after the actinide injection, frozen, and dissected after partial thawing. The skeleton, soft tissues, and separated excreta were radioanalyzed by counting the ^241Am gamma rays, or the alpha particles emitted by ^237Np or ^232U (and its ingrowing daughters). Removal of those actinides from mice by injected TREN-Me-3,2-HOPO is summarized in Table 5, which also includes data for mice similarly treated with CaNa3-DTPA and for actinide-injected controls. […] The structure of Am(III)-TREN-Me-3,2-HOPO is considered to resemble that of the Gd(III) complexes (see example 20). Complexation of the fraction of Np(V) that is reduced in vivo to Np(IV) is considered to resemble that of Pu(IV). Complexation of U(VI) is considered to take place through binding to UO2^2+.

[2] = Promoting excretion of 241Am(III) in mice by injected ligand
Text: as §1
(§3) Radionuclides used in the animal studies came from a variety of sources. However, they can be purchased commercially. The ^238Pu(IV) citrate and ^241Am(III) citrate solutions were prepared for animal injection by 8- to 10-fold dilution with 0.14M NaCl (pH 4) of concentrated stock solutions (0.08M sodium citrate buffer) that had been held in frozen storage at Lawrence Berkeley Laboratory (hereinafter LBL) for several years. [The ^238Pu(IV) was originally obtained from D. R. Atherton at the University of Utah Radiobiology Laboratory, Salt Lake City. The ^241Am(III) solution had been obtained many years earlier from the LBL Actinide Chemistry group.]
as §2

[3] = Promoting excretion of 238Pu(IV) in mice by orally administered ligands; settings: of ligand by gavage three minutes after iv ^238Pu(IV); kill at 24 hours
Text: as §1
Radionuclides used in the animal studies came from a variety of sources. However, they can be purchased commercially. […]
The novel chelating agents of the present invention and comparative compounds were tested for their effectiveness in promoting excretion of ^238Pu(IV) by oral administration to mice as follows. […] The ^238Pu(IV) in skeleton, soft tissues, and separated excreta was determined by counting the ^234U L x-rays. […]

[4] = Promoting excretion of 238Pu(IV) in mice by injected ligands; settings: ligand 30 µmol kg^-1 ip at 1 h after iv ^238Pu(IV) citrate, kill at 24 h
Text: as §1, §3
The novel chelating agents of the present invention and comparative compounds were tested for their effectiveness in promoting excretion ^238Pu(IV) in nice by injected ligands as follows. Mice, in groups of five, each received an intravenous injection of 1850 Bq ^238Pu(IV) in 0.2 mL of citrate buffer. One hour later, 30 µmol/kg of ligand was injected intraperitoneally in 0.5 mL of saline. The mice were killed 24 hours after the Pu injection, frozen, and dissected after partial thawing. The ^238Pu in skeleton, soft tissues, and separated excreta was determined by counting the ^234U L x-rays. Results of removal of ^238Pu(IV) from mice by injected ligands are summarized in Table 3, which also includes data for CaNa3-DTPA and other reference ligands and the Pu-injected controls. […] While the case of multidente 1,2-HOPO and catechoylamide chelating agents, octadentates are always better chelating agents than the corresponding hexadentates and tetradentates.

[5] = Np(V), ligand 30 mmol.kg-1 i.p at 3 to 5 min after actinide i.v., kill at 24 h
[6] = Np(V), ligand 30 mmol.kg-1 i.p at 3 to 5 min after actinide i.v., kill at 24 h, pooled
[7] = Am(III), ligand 30 mmol.kg-1 i.p at 3 to 5 min after actinide i.v., kill at 24 h
[8] = Am(III), ligand 30 mmol.kg-1 i.p at 3 to 5 min after actinide i.v., kill at 24 h, pooled

In the case of `Cn1ccc(C(=O)NCCN(CCNC(=O)c2ccn(C)c(=O)c2O)CCNC(=O)c2ccn(C)c(=O)c2O)c(O)c1=O` [TREN-Me-3,2-HOPO, N,N,N,-Tris[(3-hydroxy-1-methyl-2-oxo-1,2-dihydropyridin-4-yl)carboxamidoethyl]-amine], the “percent of injected actinide ± SD at 24 h, tissues: skeleton” value [1, 5] is reported as 34 ± 4.5% of injected actinide, the “percent of injected actinide ± SD at 24 h, tissues: soft tissue” value [1, 5] is reported as 3.1 ± 1.1% of injected actinide and the “percent of injected actinide ± SD at 24 h, whole body” value [1, 5] is reported as 42 ± 11^d,e percent of injected actinide. The “percent of injected actinide at 24 h, excreta: feces and GI contents” value [1, 6] was 17% of injected actinide, the “percent of injected actinide at 24 h, excreta: urine 0-24 h” value [1, 6] was 40% of injected actinide and the “percent of injected actinide at 24 h, tissues: kidneys” value [1, 6] was 1.0% of injected actinide. For the same compound, the “Np content of the soft tissues compared with controls (in words)” value ([1]; intraperitoneally three to five minutes after actinide) was “the Np content of the soft tissues was significantly reduced”, the “Am content of tissues compared with controls (in words)” value ([2]; 30 µmol/kg intraperitoneally three to five minutes after actinide) was “the Am content of all tissues was greatly reduced” and the “percent of injected actinide ± SD at 24 h, tissues: liver” value [2, 7] was 1.0 ± 0.6^d,e percent of injected actinide. For the same compound, the “percent of injected actinide ± SD at 24 h, tissues: skeleton” value [2, 7] was 8.1 ± 1.6^d percent of injected actinide, the “percent of injected actinide ± SD at 24 h, tissues: soft tissue” value [2, 7] was 1.6 ± 0.6^d percent of injected actinide and the “percent of injected actinide ± SD at 24 h, whole body” value [2, 7] was 11 ± 1.4^d,e percent of injected actinide. For the same compound, the “percent of injected actinide at 24 h, excreta: feces and GI contents” value [2, 8] was 38% of injected actinide, the “percent of injected actinide at 24 h, excreta: urine 0-24 h” value [2, 8] was 51% of injected actinide and the “percent of injected actinide at 24 h, tissues: kidneys” value [2, 8] was 0.2% of injected actinide. For the same compound, the “Pu removal by oral administration (in words)” value [3] was “the more effective in both (by oral and injection) cases”, the “percent of injected ^238Pu ± SD at 24 h, tissues: liver” value [4] was 5.0 ± 2.2^d percent of injected ^238Pu and the “percent of injected ^238Pu ± SD at 24 h, tissues: skeleton” value [4] was 10 ± 1.1% of injected ^238Pu. The “percent of injected ^238Pu ± SD at 24 h, tissues: soft tissue” value [4] was 2.5 ± 0.8% of injected ^238Pu, the “percent of injected ^238Pu ± SD at 24 h, whole body” value [4] was 18 ± 2.7^d percent of injected ^238Pu and the “percent of injected ^238Pu at 24 h, excreta: feces and GI contents” value ([4]; pooled samples) was 43.3% of injected ^238Pu. The “percent of injected ^238Pu at 24 h, excreta: urine 0-24 h” value ([4]; pooled samples) was 37% of injected ^238Pu and the “percent of injected ^238Pu at 24 h, tissues: kidneys” value ([4]; pooled samples) was 0.6% of injected ^238Pu.
